What was measured:
[1] = test system: patients with relapsing form of clinically definite MS who relapsed while taking Rebif®; assay: Example 2: oral Cladribine added to Rebif in MS patients with a relapse while taking Rebif (MRI brain lesions, safety); type: in vivo, human
[2] = test system: patients with primary progressive (PP) or secondary progressive (SP) multiple sclerosis; details: Phase III; 0.07 mg/kg/day s.c., repeated for 2 or 6 months; cited from earlier work
[3] = test system: patients with remitting-relapsing multiple sclerosis; details: oral, 6 monthly courses of 5 days, total dose about 4-5.7 mg/kg; compared with i.v. infusion study (Sipe et al., 1994); cited from earlier work
[4] = test system: patients with relapsing forms of clinically definite multiple sclerosis; assay: Example 1: oral Cladribine in patients with relapsing forms of MS (MRI brain lesions, safety); type: in vivo, human; details: for brain lesions (MRI): then maintenance
Excerpt: Each patient is first examined for normal hepatic, renal, and bone marrow functioning to establish baseline values. Patients are selected from Male or Female, between 18 and 55 years of age who had one or more relapses within the prior 12 months. Female patients are non-pregnant female. […] Patients are monitored to determine whether there is any progression or improvement of brain lesions associated with progression of MS through MRI scans and neurological examination as described in Miller et al., 1996, above; Evans et al., 1997, above; Sipe et al., 1984, above; and Mattson, 2002, above. All patients have a baseline and MRI study (brain or spinal cord, according to localization of the lesions) at month 12. The patient's disability progression and the time for having a first relapse are monitored as well as the proportion of relapse-free patients at 24 months. Lymphocyte markers and monocyte counts are monitored in the patients.

[5] = test system: patients with Chronic Progressive MS and Relapsing-Remitting MS; details: cited from earlier work
[6] = oral 2-CdA induction and maintenance treatments combined with Rebif 44 mcg s.c. TIW, 96 weeks
[7] = oral 2-CdA cyclodextrin tablets, induction treatment followed by maintenance treatments

## Nc1nc(Cl)nc2c1ncn2[C@H]1C[C@H](O)[C@@H](CO)O1 [Cladribine, 2-chloro-2′deoxyadenosine]
[1]; Group 2: low dose cladribine (1.75 mg/kg induction + 1.75 mg/kg maintenance) added to Rebif 44 mcg s.c. TIW
  brain lesions (MRI): decrease in brain lesions
[1]; Group 3: high dose cladribine (3.5 mg/kg induction + 1.75 mg/kg maintenance) added to Rebif 44 mcg s.c. TIW
  brain lesions (MRI): decrease in brain lesions
[1]; [6]
  adverse effects: no severe adverse effect is observed
  effect of the regimen on brain lesions: efficient in decreasing brain lesions
[2]
  MRI-measured brain lesions: significant reduction of MRI-measured brain lesions
[3]
  side effects: less severe
[4]; Group 2: oral 2-CdA total dose 1.75 mg/kg over 2 months induction
  brain lesions (MRI): decrease in brain lesions
[4]; Group 3: oral 2-CdA total dose 3.5 mg/kg over 4 months induction
  brain lesions (MRI): decrease in brain lesions
[4]; [7]
  adverse effects: no severe adverse effect is observed
  effect of the regimen on brain lesions: efficient in decreasing brain lesions
[5]; Phase II, 0.1 mg/kg/day 7 days i.v. x 4 months or 0.07 mg/kg/day 5 days s.c. x 6 months
  EDSS, SNRS scores and MRI findings: positive effects
[5]; observed with the highest doses (Selby et al., 1998; Beutler et al., 1994)
  adverse effects (AEs): increased incidence of infections related to compromised immune function or myelosuppression

Source: US12377056B2, “Cladribine regimen for treating multiple sclerosis” (priority 2006, dated 2025)
